# According to patent US9060529B2, “Method for treatment of lacto-N-biose-containing solution” (Morinaga Milk Industry Co., Ltd., priority 2010, dated 2015):
# Assay: Test Example 3: effect of heating temperature and time on stability of LNB at various pH (2% LNB in buffer, TLC)
# Format: physicochemical
# Set-up: key to extent of decomposition: −: no decomposition; ±: slight decomposition; +: partial decomposition; ++: majority decomposition; +++: almost total decomposition
# Conditions: for stability of LNB (decomposition by TLC): 65-120° C., 5-60 minutes
# Protocol: Samples of the LNB powder prepared in the above Production Example 1 were dissolved at a concentration of 2% in a 0.1 M citrate buffer solution (pH: 5.5, 5.0, 4.0, 3.0) to prepare a series of liquid compositions containing LNB. Further, a portion of the LNB solution having a pH of 3.0 was used to prepare solutions having a pH of 2.0 or 1.0 by adding 1 M hydrochloric acid.
# In a separate preparation, a sample of the LNB powder was dissolved at a concentration of 2% in a 0.1 M phosphate buffer having a pH of 7.0 to prepare a liquid composition containing LNB.
# Sets containing the liquid compositions containing LNB at each pH value were each heated at a predetermined temperature (65, 70, 80, 90, 100 or 120° C.) for a predetermined period of time (5, 10, 20, 30 or 60 minutes).
# Each of the heated liquid compositions containing LNB was cooled, and the same method as that described for Test Example 1 was used to determine whether or not decomposition had occurred, and if so, the extent of that decomposition. Based on the results, the extent of decomposition was evaluated against the criteria listed below.
# • − no decomposition • ± slight decomposition • + partial decomposition • ++ majority decomposition • +++ almost total decomposition 2) Test Results: […]
structure (smiles),measurement,setting,value
"CC(=O)N[C@H]1C(O)O[C@H](CO)[C@@H](O)[C@@H]1O[C@@H]1O[C@H](CO)[C@H](O)[C@H](O)[C@H]1O (stereo partly drawn) [LNB, Lacto-N-biose]",extent of decomposition,"pH 4.0, 65° C., 5 minutes",−
same,extent of decomposition,"pH 4.0, 65° C., 10 minutes",−
same,extent of decomposition,"pH 4.0, 65° C., 20 minutes",−
same,extent of decomposition,"pH 4.0, 65° C., 30 minutes",−
same,extent of decomposition,"pH 4.0, 65° C., 60 minutes",−
same,extent of decomposition,"pH 4.0, 70° C., 5 minutes",−
same,extent of decomposition,"pH 4.0, 70° C., 10 minutes",−
same,extent of decomposition,"pH 4.0, 70° C., 20 minutes",−
same,extent of decomposition,"pH 4.0, 70° C., 30 minutes",−
same,extent of decomposition,"pH 4.0, 70° C., 60 minutes",−
same,extent of decomposition,"pH 4.0, 80° C., 5 minutes",−
same,extent of decomposition,"pH 4.0, 80° C., 10 minutes",−
same,extent of decomposition,"pH 4.0, 80° C., 20 minutes",−
same,extent of decomposition,"pH 4.0, 80° C., 30 minutes",−
same,extent of decomposition,"pH 4.0, 80° C., 60 minutes",−
same,extent of decomposition,"pH 4.0, 90° C., 5 minutes",−
same,extent of decomposition,"pH 4.0, 90° C., 10 minutes",−
same,extent of decomposition,"pH 4.0, 90° C., 20 minutes",−
same,extent of decomposition,"pH 4.0, 90° C., 30 minutes",−
same,extent of decomposition,"pH 4.0, 90° C., 60 minutes",−
same,extent of decomposition,"pH 4.0, 100° C., 5 minutes",−
same,extent of decomposition,"pH 4.0, 100° C., 10 minutes",−
same,extent of decomposition,"pH 4.0, 100° C., 20 minutes",−
same,extent of decomposition,"pH 4.0, 100° C., 30 minutes",−
same,extent of decomposition,"pH 4.0, 100° C., 60 minutes",−
same,extent of decomposition,"pH 4.0, 120° C., 5 minutes",−
same,extent of decomposition,"pH 4.0, 120° C., 10 minutes",−
same,extent of decomposition,"pH 4.0, 120° C., 20 minutes",−
same,extent of decomposition,"pH 4.0, 120° C., 30 minutes",−
same,extent of decomposition,"pH 4.0, 120° C., 60 minutes",−
same,extent of decomposition,"pH 5.0, 65° C., 5 minutes",−
same,extent of decomposition,"pH 5.0, 65° C., 10 minutes",−
same,extent of decomposition,"pH 5.0, 65° C., 20 minutes",−
same,extent of decomposition,"pH 5.0, 65° C., 30 minutes",−
same,extent of decomposition,"pH 5.0, 65° C., 60 minutes",−
same,extent of decomposition,"pH 5.0, 70° C., 5 minutes",−
same,extent of decomposition,"pH 5.0, 70° C., 10 minutes",−
same,extent of decomposition,"pH 5.0, 70° C., 20 minutes",−
same,extent of decomposition,"pH 5.0, 70° C., 30 minutes",−
same,extent of decomposition,"pH 5.0, 70° C., 60 minutes",−
same,extent of decomposition,"pH 5.0, 80° C., 5 minutes",−
same,extent of decomposition,"pH 5.0, 80° C., 10 minutes",−
same,extent of decomposition,"pH 5.0, 80° C., 20 minutes",−
same,extent of decomposition,"pH 5.0, 80° C., 30 minutes",−
same,extent of decomposition,"pH 5.0, 80° C., 60 minutes",−
same,extent of decomposition,"pH 5.0, 90° C., 5 minutes",−
same,extent of decomposition,"pH 5.0, 90° C., 10 minutes",−
same,extent of decomposition,"pH 5.0, 90° C., 20 minutes",−
same,extent of decomposition,"pH 5.0, 90° C., 30 minutes",−
same,extent of decomposition,"pH 5.0, 90° C., 60 minutes",−
same,extent of decomposition,"pH 5.0, 100° C., 5 minutes",−
same,extent of decomposition,"pH 5.0, 100° C., 10 minutes",−
same,extent of decomposition,"pH 5.0, 100° C., 20 minutes",−
same,extent of decomposition,"pH 5.0, 100° C., 30 minutes",−
same,extent of decomposition,"pH 5.0, 100° C., 60 minutes",±
same,extent of decomposition,"pH 5.0, 120° C., 5 minutes",−
same,extent of decomposition,"pH 5.0, 120° C., 10 minutes",−
same,extent of decomposition,"pH 5.0, 120° C., 20 minutes",±
same,extent of decomposition,"pH 5.0, 120° C., 30 minutes",±
same,extent of decomposition,"pH 5.0, 120° C., 60 minutes",±
same,extent of decomposition,"pH 5.5, 65° C., 5 minutes",−
same,extent of decomposition,"pH 5.5, 65° C., 10 minutes",−
same,extent of decomposition,"pH 5.5, 65° C., 20 minutes",−
same,extent of decomposition,"pH 5.5, 65° C., 30 minutes",−
same,extent of decomposition,"pH 5.5, 65° C., 60 minutes",−
same,extent of decomposition,"pH 5.5, 70° C., 5 minutes",−
same,extent of decomposition,"pH 5.5, 70° C., 10 minutes",−
same,extent of decomposition,"pH 5.5, 70° C., 20 minutes",−
same,extent of decomposition,"pH 5.5, 70° C., 30 minutes",−
same,extent of decomposition,"pH 5.5, 70° C., 60 minutes",−
same,extent of decomposition,"pH 5.5, 80° C., 5 minutes",−
same,extent of decomposition,"pH 5.5, 80° C., 10 minutes",−
same,extent of decomposition,"pH 5.5, 80° C., 20 minutes",−
same,extent of decomposition,"pH 5.5, 80° C., 30 minutes",−
same,extent of decomposition,"pH 5.5, 80° C., 60 minutes",−
same,extent of decomposition,"pH 5.5, 90° C., 5 minutes",−
same,extent of decomposition,"pH 5.5, 90° C., 10 minutes",−
same,extent of decomposition,"pH 5.5, 90° C., 20 minutes",−
same,extent of decomposition,"pH 5.5, 90° C., 30 minutes",−
same,extent of decomposition,"pH 5.5, 90° C., 60 minutes",±
same,extent of decomposition,"pH 5.5, 100° C., 5 minutes",−
same,extent of decomposition,"pH 5.5, 100° C., 10 minutes",−
same,extent of decomposition,"pH 5.5, 100° C., 20 minutes",−
same,extent of decomposition,"pH 5.5, 100° C., 30 minutes",±
same,extent of decomposition,"pH 5.5, 100° C., 60 minutes",+
same,extent of decomposition,"pH 5.5, 120° C., 5 minutes",−
same,extent of decomposition,"pH 5.5, 120° C., 10 minutes",±
same,extent of decomposition,"pH 5.5, 120° C., 20 minutes",+
same,extent of decomposition,"pH 5.5, 120° C., 30 minutes",+
same,extent of decomposition,"pH 5.5, 120° C., 60 minutes",+
same,extent of decomposition,"pH 7.0, 100° C., 5 minutes",+
same,extent of decomposition,"pH 7.0, 100° C., 10 minutes",+
same,extent of decomposition,"pH 7.0, 100° C., 20 minutes",++
same,extent of decomposition,"pH 7.0, 100° C., 30 minutes",++
same,extent of decomposition,"pH 7.0, 100° C., 60 minutes",+++
same,extent of decomposition,"pH 7.0, 120° C., 5 minutes",++
same,extent of decomposition,"pH 7.0, 120° C., 10 minutes",+++
same,extent of decomposition,"pH 7.0, 120° C., 20 minutes",+++
same,extent of decomposition,"pH 7.0, 120° C., 30 minutes",+++
same,extent of decomposition,"pH 7.0, 120° C., 60 minutes",+++
same,stability of LNB (decomposition by TLC),pH 7.0 or 1.0,decomposition occurred even after heating for 5 minutes
same,stability of LNB (decomposition by TLC),pH not less than 2.0 to not more than 5.5,stable and underwent almost no decomposition
